# Test system: 301 cancer cell lines from different tumor types (OncoPanel; HD Biosciences)
# Assay: 2D cell viability inhibition assay (CellTiter-Glo) in cancer cell line panel
# Assay type: cell-based
# Set-up: key to AUC: AUC as fraction of the no-inhibition area (dose range × 0–100 % of control)
# Conditions: for Emax: in %
# Experimental: In a larger screening study, compound 1 was evaluated across a broad cancer cell line panel (OncoPanel; HD Biosciences) composed of 301 cancer cell lines from different tumor types.
# 2D cell viability inhibition assays were performed in multiwell plates seeded with cells from the panel. After seeding, the plates were cultured overnight in a humidified incubator at 37° C. to promote adherence. Assays were initiated in individual wells by adding either DMSO as a vehicle control, growth media as a blank, or serially diluted compound 1 (10 μM to 0.0005 μM with 1:3 serial dilution). Cultures were incubated for 168 hours after which the number of viable cells in each test well was assessed using the CellTiter-Glo® Luminescent Cell Viability Assay. Luminescence readouts were performed using an EnVision® Multilabel Reader and the compound 1 readouts were normalized to the DMSO control readouts, expressed as a percent of the control. Outliers were flagged out by visual inspection. Percent of control was plotted against the corresponding compound 1 concentration and the absolute IC50 value was determined using four-parameter logistic non-linear regression as the concentration where inhibition was 50% of the control. For maximum inhibition <50%, the absolute IC50 was reported as >10. In addition to EC50 and IC50, AUC was determined and was normalized to the area corresponding to theoretical no-inhibition (the rectangular area defined by the compound dose range and 0 to 100 in y). Emax was recorded as the minimum in y with the compound dose range. For those cell lines where Emax>40, EC50 was manually set to 10 μM. A hierarchical clustering algorithm based on Euclidean distance between the standardized input values and “Ward.D” method as implemented in R hclust function was used to visualize the compound 1 cellular potency data. The sensitive/moderate/resistant calls for each cell line was determined by visually inspecting the resulting clustering dendrogram. All the analyses were done in R Core Team.
compound,measurement,setting,value
"CC(C)c1ccc(N(C)c2ccc3c(c2)OCC[C@H]3CNc2cnccc2C(=O)O)cc1 [Compound 1, 3-({[(4R)-7-{methyl[4-(propan-2-yl)phenyl]amino}-3,4-dihydro-2H-1-benzopyran-4-yl]methyl}amino)pyridine-4-carboxylic acid]",AUC,143B cell line,0.3582
same,Emax,143B cell line,2.196
same,AUC,647V cell line,0.3912
same,Emax,647V cell line,10.18
same,AUC,5637 cell line,0.4857
same,EC50,5637 cell line,0.00224 µM
same,IC50,5637 cell line,0.00611 µM
same,Emax,5637 cell line,33.01
same,AUC,7860 cell line,0.5049
same,IC50,"168 h, HS688AT, skin, NS",> 10 µM
same,IC50,"168 h, HS739T, breast, NS",> 10 µM
same,IC50,"168 h, HS839T, skin, NS",> 10 µM
same,IC50,"168 h, HS852T, skin, NS",> 10 µM
same,IC50,"168 h, HUH28, biliary tract, NS",> 10 µM
same,IC50,"168 h, KG1, haematopoietic and lymphoid tissue, acute myeloid leukaemia",> 10 µM
same,IC50,"168 h, KURAMOCHI, ovary, undifferentiated carcinoma",> 10 µM
same,IC50,"168 h, NMCG1, central nervous system, NS",> 10 µM
same,IC50,"168 h, SKMEL31, skin, NS",> 10 µM
same,IC50,"168 h, T24, urinary tract, transitional cell carcinoma",> 10 µM
same,IC50,"168 h, TE1, oesophagus, squamous cell carcinoma",> 10 µM
same,IC50,"168 h, TE8, oesophagus, squamous cell carcinoma",> 10 µM
same,AUC,A101D cell line,0.4689
same,Emax,A101D cell line,20.46
same,AUC,"A204, soft tissue, NS, 168 hours",0.7136
same,AUC,A375 cell line,0.4405
same,Emax,A375 cell line,19.51
same,AUC,A549 cell line,0.573
same,AUC,A2058 cell line,0.5694
same,AUC,A2780 cell line,0.1811
same,AUC,ACHN cell line,0.453
same,AUC,AGS cell line,0.3536
same,Emax,AGS cell line,14.1129
same,AUC,ASPC1 cell line,0.5812
same,AUC,AZ521 cell line,0.2875
same,AUC,BFTC905 cell line,0.3989
same,Emax,BFTC905 cell line,13.74
same,AUC,BICR18 cell line,0.619
same,EC50,BICR18 cell line,0.187 µM
same,IC50,BICR18 cell line,0.194 µM
same,AUC,BICR22 cell line,0.6829
same,IC50,BICR22 cell line,> 10 µM
same,AUC,"BT20, breast, ductal carcinoma, 168 hours",0.9117
same,AUC,"BT474, breast, ductal carcinoma, 168 hours",0.7206
same,AUC,BT549 cell line,0.431
same,Emax,BT549 cell line,20.55
same,AUC,BXPC3 cell line,0.5738
same,AUC,"C2BBE1, large intestine, adenocarcinoma, 168 hours",0.8303
same,AUC,C32 cell line,0.2532
same,AUC,CAKI1 cell line,0.5319
same,Emax,CAKI1 cell line,34.03
same,AUC,"CAL27, upper aerodigestive tract, squamous cell carcinoma, 168 hours",0.8335
same,AUC,"CALU1, lung, squamous cell carcinoma, 168 hours",1.217
same,AUC,"CALU3, lung, adenocarcinoma, 168 hours",0.7277
same,AUC,CALU6 cell line,0.4595
same,Emax,CALU6 cell line,18.32
same,AUC,CAOV3 cell line,0.3908
same,Emax,CAOV3 cell line,19.3273
same,AUC,CAPAN1 cell line,0.6391
same,AUC,"CAPAN2, pancreas, ductal carcinoma, 168 hours",0.8808
same,AUC,"CCFSTTG1, central nervous system, astrocytoma, 168 hours",0.879
same,AUC,CFPAC1 cell line,0.5227
same,Emax,CFPAC1 cell line,29.22
same,AUC,CHL1 cell line,0.3493
same,AUC,COLO205 cell line,0.4833
same,Emax,COLO205 cell line,27.13
same,AUC,COLO320HSR cell line,0.2403
same,AUC,COLO679 cell line,0.502
same,AUC,COLO680N cell line,0.5311
same,Emax,COLO680N cell line,33.76
same,AUC,COLO741 cell line,0.4186
same,Emax,COLO741 cell line,18.78
same,AUC,COLO829 cell line,0.6557
same,AUC,CORL279 cell line,0.3155
same,AUC,"DAOY, central nervous system, NS, 168 hours",0.9684
same,AUC,DAUDI cell line,0.5383
same,Emax,DAUDI cell line,25.4109
same,AUC,DETROIT562 cell line,0.5873
same,Emax,DETROIT562 cell line,36.51
same,AUC,DLD1 cell line,0.226
same,AUC,"DMS53, lung, small cell carcinoma, 168 hours",0.7426
same,AUC,DMS79 cell line,0.3845
same,AUC,DMS153 cell line,0.6737
same,AUC,DMS273 cell line,0.4815
same,AUC,DU145 cell line,0.4324
same,Emax,DU145 cell line,18.16
same,AUC,DV90 cell line,0.3698
same,Emax,DV90 cell line,11.78
same,AUC,ECGI10 cell line,0.5683
same,EC50,ECGI10 cell line,≥ 10 µM
same,IC50,ECGI10 cell line,0.0224 µM
same,AUC,FTC133 cell line,0.4146
same,Emax,FTC133 cell line,22.3385
same,AUC,"G361, skin, NS, 168 hours",1.044
same,AUC,G401 cell line,0.2508
same,AUC,GAK cell line,0.6649
same,IC50,GAK cell line,> 10 µM
same,AUC,GI1 cell line,0.6237
same,AUC,GP2D cell line,0.506
same,EC50,"GP2d, GP2D cell line",0.0206 µM
same,IC50,"GP2d, GP2D cell line",0.0262 µM
same,AUC,GRANTA519 cell line,0.4686
same,Emax,GRANTA519 cell line,17.91
same,AUC,"HCC38, breast, ductal carcinoma, 168 hours",0.9864
same,AUC,HCC70 cell line,0.4135
same,Emax,HCC70 cell line,13.85
same,AUC,HCC78 cell line,0.5315
same,AUC,HCC95 cell line,0.4072
same,AUC,"HCC827, lung, adenocarcinoma, 168 hours",0.8814
same,AUC,HCC1143 cell line,0.6906
same,AUC,HCC1187 cell line,0.465
same,Emax,HCC1187 cell line,34
same,AUC,"HCC1419, breast, ductal carcinoma, 168 hours",0.7201
same,AUC,"HCC1428, breast, NS, 168 hours",0.7818

# Reference: US20250134874A1, “PHARMACEUTICAL FORMULATIONS COMPRISING 3-({[(4R)-7-{METHYL[4-(PROPAN-2-YL)PHENYL]AMINO}-3,4-DIHYDRO-2H-1-BENZOPYRAN-4-YL]METHYL}AMINO)PYRIDINE-4-CARBOXYLIC ACID” (TACHYON THERAPEUTICS, INC., priority 2021, published 2025)
